Experiments:
[1] = target: T1, recombinant human ALK5 (TGF-βR1) protein (Homo sapiens, UniProt P36897); assay: Biochemical ALK5 (TGF-βR1) assay to measure pKi (LANCE Ultra ULight kinase assay); details: apparent pKi from pIC50 by Cheng-Prusoff, read-out: ALK5 pKi (converted)
T1 construct: purchased Life Technologies PR9075A
T1 sequence (P36897 34-503): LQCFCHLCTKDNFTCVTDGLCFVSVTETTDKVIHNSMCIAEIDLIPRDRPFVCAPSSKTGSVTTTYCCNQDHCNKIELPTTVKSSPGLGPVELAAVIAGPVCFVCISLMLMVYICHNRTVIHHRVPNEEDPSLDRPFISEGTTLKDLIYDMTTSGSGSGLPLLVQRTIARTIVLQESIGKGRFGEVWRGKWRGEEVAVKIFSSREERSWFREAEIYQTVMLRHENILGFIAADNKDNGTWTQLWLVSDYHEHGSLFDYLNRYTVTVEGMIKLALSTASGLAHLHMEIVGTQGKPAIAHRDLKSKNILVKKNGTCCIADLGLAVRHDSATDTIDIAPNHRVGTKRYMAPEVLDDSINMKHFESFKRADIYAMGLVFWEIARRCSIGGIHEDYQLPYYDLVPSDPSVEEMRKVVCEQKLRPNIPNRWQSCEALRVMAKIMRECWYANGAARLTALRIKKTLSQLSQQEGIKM
Procedure, shortened: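 Dose range 10 μM–25 pM; enzyme + compound 60 min RT; ATP added (5× stock 125 μM, 2 mM DTT); 60 min 37 °C; stop with EDTA + Eu anti-phospho-Topo IIα Thr1342 Ab; TR-FRET ex 320/340, em 665 nm. 4-param pIC50 → pKi (Cheng-Prusoff).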

[2] = system: TGF-β-stimulated SMAD3 phosphorylation in BEAS-2B cells; assay: Cellular ALK5 potency assay, inhibition of TGF-β stimulated pSMAD3 formation in BEAS-2B cells; type: cell-based; details: Homo sapiens; inhibition of TGF-β stimulated pSMAD3 formation, BEAS-2B cells; read-out: BEAS2B pIC50 (converted)
Procedure, shortened: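 SMAD3 phosphorylation was measured by AlphaLISA after 30 min TGF-β stimulation (10 ng/mL final) of BEAS-2B cells preincubated 1 h with compound at 37 °C. Results given as pIC50.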

SMILES	Ki [1] [nM]	IC50 [2] [nM]
Cc1cccc(-c2n[nH]cc2-c2ccc3ncc(NCC4CN5CCN4CC5)cc3n2)n1 (centres unmarked) [Compound 566, N-(1,4-diazabicyclo[2.2.2]octan-2-ylmethyl)-6-[3-(6-methyl-2-pyridyl)-1H-pyrazol-4-yl]-1,5-naphthyridin-3-amine]	0.0398 to 0.316	25.1 to 158
Cc1cccc(-c2[nH]cnc2-c2ccc3ncc(C(=O)OC[C@H]4CCC[C@H](N)C4)cc3c2)n1 (racemic) [Compound 769, [rac-(1S,3S)-3-aminocyclohexyl]methyl 6-[5-(6-methyl-2-pyridyl)-1H-imidazol-4-yl]quinoline-3-carboxylate]	0.0398 to 0.316	25.1 to 158
Cc1nc(-c2nc3ccccn3c2-c2ccc3ncc(-c4nnn5c4CNCC5)cc3n2)ccc1F [Compound 202, 2-[2-(5-fluoro-6-methyl-2-pyridyl)imidazo[1,2-a]pyridin-3-yl]-7-(4,5,6,7-tetrahydrotriazolo[1,5-a]pyrazin-3-yl)-1,5-naphthyridine]	0.0398 to 0.316	200 to 1260
COC(=O)c1ccnc2ccc(-c3c(OC)n[nH]c3-c3cccc(C)n3)nc12 [Compound 864, methyl 6-[3-methoxy-5-(6-methyl-2-pyridyl)-1H-pyrazol-4-yl]-1,5-naphthyridine-4-carboxylate]	0.398 to 3.16	200 to 1260
Cc1nc(-c2n[nH]cc2-c2ccc3ncc(-c4cnn(C[C@H]5C[C@@H](N)C5)c4)cc3n2)ccc1F [Compound 517, 3-[[4-[6-[3-(5-fluoro-6-methyl-2-pyridyl)-1H-pyrazol-4-yl]-1,5-naphthyridin-3-yl]pyrazol-1-yl]methyl]cyclobutanamine]	0.0398 to 0.316	25.1 to 158
Cc1cccc(-c2[nH]ncc2-c2ccc3ncc(C(=O)N4CC(N5CCOCC5)C4)cc3n2)n1 [Compound 352, [6-[5-(6-methyl-2-pyridyl)-1H-pyrazol-4-yl]-1,5-naphthyridin-3-yl]-(3-morpholinoazetidin-1-yl)methanone]	3.98 to 31.6	200 to 1260
Cc1cccc(-c2[nH]cnc2-c2ccc3ncc(C(=O)O[C@H]4CCCNC4)cc3c2)n1 [Compound 878, (S)-piperidin-3-yl 6-(5-(6-methylpyridin-2-yl)-1H-imidazol-4-yl)quinoline-3-carboxylate]	0.0398 to 0.316	25.1 to 158
Cc1cccc(-c2[nH]cnc2-c2ccc3ncc(C4=CCCCC4)cc3c2)n1 [Compound 147, 3-(cyclohexen-1-yl)-6-[5-(6-methyl-2-pyridyl)-1H-imidazol-4-yl]quinoline]	0.0398 to 0.316	25.1 to 158
Cc1cccc(-c2nc3ccccn3c2-c2ccc3ncc(N4CCNCC4)cc3n2)n1 [Compound 473, 2-[2-(6-methyl-2-pyridyl)imidazo[1,2-a]pyridin-3-yl]-7-piperazin-1-yl-1,5-naphthyridine]	0.0398 to 0.316	25.1 to 158
Cc1cccc(-c2n[nH]cc2-c2ccc3ncc(N4CCN(CC(F)(F)F)CC4)cc3n2)n1 [Compound 266, 2-[3-(6-methyl-2-pyridyl)-1H-pyrazol-4-yl]-7-[4-(2,2,2-trifluoroethyl)piperazin-1-yl]-1,5-naphthyridine]	0.0398 to 0.316	25.1 to 158
Cc1cccc(-c2n[nH]cc2-c2ccc3ncc(N4CCn5nc(C6=CCNC6)nc5C4)cc3n2)n1 [Compound 362, 7-[2-(2,5-dihydro-1H-pyrrol-3-yl)-6,8-dihydro-5H-[1,2,4]triazolo[1,5-a]pyrazin-7-yl]-2-[3-(6-methyl-2-pyridyl)-1H-pyrazol-4-yl]-1,5-naphthyridine]	0.0398 to 0.316	200 to 1260
Cc1cccc(-c2nc3n(c2-c2ccc4ncc(-c5cn[nH]c5)cc4c2)CCNC3)n1 [Compound 635, 6-(2-(6-methylpyridin-2-yl)-5,6,7,8-tetrahydroimidazo[1,2-a]pyrazin-3-yl)-3-(1H-pyrazol-4-yl)quinoline]	0.0398 to 0.316	200 to 1260
Cc1cccc(-c2[nH]cnc2-c2ccc3ncc(-c4nccc(C(=O)OC5CNC5)n4)cc3c2)n1 [Compound 1075, azetidin-3-yl 2-[6-[5-(6-methyl-2-pyridyl)-1H-imidazol-4-yl]-3-quinolyl]pyrimidine-4-carboxylate]	0.398 to 3.16	200 to 1260
Cc1cccc(-c2n[nH]cc2-c2ccc3ncc(-c4ccccc4)cc3n2)n1 [Compound 398, 2-[3-(6-methyl-2-pyridyl)-1H-pyrazol-4-yl]-7-phenyl-1,5-naphthyridine]	< 0.0316	< 20
Cc1cccc(-c2n[nH]cc2-c2ccc3ncc(NC(=O)CN4CCOCC4)cc3n2)n1 [Compound 353, N-[6-[3-(6-methyl-2-pyridyl)-1H-pyrazol-4-yl]-1,5-naphthyridin-3-yl]-2-morpholino-acetamide]	0.0398 to 0.316	25.1 to 158
Cc1cccc(-c2[nH]cnc2-c2ccc3ncc(-c4ccc(C(=O)OC[C@H]5CCCCN5)cn4)cc3c2)n1 [Compound 1244, [(2R)-2-piperidyl]methyl 6-[6-[5-(6-methyl-2-pyridyl)-1H-imidazol-4-yl]-3-quinolyl]pyridine-3-carboxylate]	0.0398 to 0.316	25.1 to 158
Cc1cccc(-c2nnn(Cc3ccccc3)c2-c2ccc3ncc(NCCN4CCN(C(C)C)CC4)cc3n2)n1 [Compound 373, 6-(1-benzyl-4-(6-methylpyridin-2-yl)-1H-1,2,3-triazol-5-yl)-N-(2-(4-isopropylpiperazin-1-yl)ethyl)-1,5-naphthyridin-3-amine]	0.0398 to 0.316	200 to 1260
Cc1cccc(-c2[nH]cnc2-c2ccc3ncc(-c4nc5c(s4)CNCC5)cc3c2)n1 [Compound 1068, 2-[6-[5-(6-methyl-2-pyridyl)-1H-imidazol-4-yl]-3-quinolyl]-4,5,6,7-tetrahydrothiazolo[5,4-c]pyridine]	0.0398 to 0.316	< 20
Cc1cccc(-c2n[nH]cc2-c2ccc3nccc(-c4nc(CO)co4)c3n2)n1 [Compound 852, [2-[6-[3-(6-methyl-2-pyridyl)-1H-pyrazol-4-yl]-1,5-naphthyridin-4-yl]oxazol-4-yl]methanol]	0.0398 to 0.316	25.1 to 158
Cc1cccc(-c2[nH]cnc2-c2ccc3ncc(NC(=O)C4CC(N)C4)cc3c2)n1 (centres unmarked) [Compound 3, 3-amino-N-[6-[5-(6-methyl-2-pyridyl)-1H-imidazol-4-yl]-3-quinolyl]cyclobutanecarboxamide]	0.0398 to 0.316	200 to 1260

Now from value to compound, other results behind:

Ki [1] [nM]	SMILES	IC50 [2] [nM]
0.0398 to 0.316	Cc1cccc(-c2[nH]cnc2-c2ccc3ncc(C(=O)OCCN4CCCCC4)cc3c2)n1 [Compound 887, 2-(piperidin-1-yl)ethyl 6-(5-(6-methylpyridin-2-yl)-1H-imidazol-4-yl)quinoline-3-carboxylate]	25.1 to 158
< 0.0316	Cc1cccc(-c2[nH]cnc2-c2ccc3ncc(-c4cccc(C(=O)O[C@@H]5CCNC5)n4)cc3c2)n1 [Compound 1126, [(3R)-pyrrolidin-3-yl] 6-[6-[5-(6-methyl-2-pyridyl)-1H-imidazol-4-yl]-3-quinolyl]pyridine-2-carboxylate]	25.1 to 158
0.0398 to 0.316	Cc1cccc(-c2[nH]cnc2-c2ccc3ncc(-c4ncc(C(=O)OCC5CNC5)s4)cc3c2)n1 [Compound 1236, azetidin-3-ylmethyl 2-[6-[5-(6-methyl-2-pyridyl)-1H-imidazol-4-yl]-3-quinolyl]thiazole-5-carboxylate]	25.1 to 158
0.0398 to 0.316	Cc1cccc(-c2[nH]cnc2-c2ccc3ncc(-c4cncc(C(=O)O[C@H]5CCN(C)C5)c4)cc3c2)n1 [Compound 704, [(3S)-1-methylpyrrolidin-3-yl] 5-[6-[5-(6-methyl-2-pyridyl)-1H-imidazol-4-yl]-3-quinolyl]pyridine-3-carboxylate]	25.1 to 158
0.398 to 3.16	Cc1cccc(-c2[nH]cnc2-c2ccc3ncc(C(=O)O[C@H]4CCN(C)C4)cc3c2)n1 [Compound 724, [(3S)-1-methylpyrrolidin-3-yl] 6-[5-(6-methyl-2-pyridyl)-1H-imidazol-4-yl]quinoline-3-carboxylate]	25.1 to 158
0.0398 to 0.316	Cc1cccc(-c2[nH]cnc2-c2ccc3ncc(-c4nc(C(=O)OCCN5CC[C@@H](N)C5)cs4)cc3c2)n1 [Compound 1246, 2-[(3R)-3-aminopyrrolidin-1-yl]ethyl 2-[6-[5-(6-methyl-2-pyridyl)-1H-imidazol-4-yl]-3-quinolyl]thiazole-4-carboxylate]	200 to 1260
0.0398 to 0.316	Cc1cccc(-c2[nH]cnc2-c2ccc3ncc(-c4cccc(C(=O)O[C@@H]5CCN(C)C5)c4)cc3c2)n1 [Compound 608, [(3R)-1-methylpyrrolidin-3-yl] 3-[6-[5-(6-methyl-2-pyridyl)-1H-imidazol-4-yl]-3-quinolyl]benzoate]	25.1 to 158
< 0.0316	Cc1cccc(-c2[nH]cnc2-c2ccc3ncc(-c4csc(C(=O)OC[C@H]5CCCCN5)c4)cc3c2)n1 [Compound 1207, [(2R)-2-piperidyl]methyl 4-[6-[5-(6-methyl-2-pyridyl)-1H-imidazol-4-yl]-3-quinolyl]thiophene-2-carboxylate]	25.1 to 158

Source: patent US11590116B2 (THERAVANCE BIOPHARMA R&D IP, LLC, priority 2019, dated 2023)
